Experimental data: patent US20250034200A1, “Prodrugs of Neurosteroid Analogs and Uses Thereof” (priority 2021, published 2025)

Columns and labels:
[1] = Aqueous stability assay (HPLC, pseudo first-order half-life); type: physicochemical; conditions: DPBS pH 7.0-7.3, 1 mg/mL, room temperature; for half-life: buffer, read-out: PBS t1/2 (converted)
Procedure: Aqueous stability experiments were performed on an Agilent 1100 HPLC equipped with an Agilent 1200 autosampler. HPLC grade solvents were exclusively used during analysis, with acetonitrile being purchased from Sigma Aldrich, and water and formic acid provided by Fisher Scientific. […]
[…] All mixtures were then sonicated for 5 min or stirred until complete dissolution was achieved. Any precipitate observed in sample solutions was filtered with a PTFE syringe filter prior to analysis. Immediately after sample preparation, injection by the HPLC autosampler was performed, which was recorded as the initial time point (t=0 min). Samples were then kept in the autosampler at room temperature and injected at designated intervals without additional filtration or sample modification. Next, the area of the parent peak in each chromatogram was determined by automated integration in the Agilent ChemStation software. Pseudo first-order half-lives were then ascertained by calculating the percent of the parent compound remaining after each time point. Plots of time (x-axis) vs. the natural logarithm of percent parent remaining (y-axis) were subsequently constructed to determine the slope. Finally, the aqueous stability was evaluated using the following equation:
The HPLC conditions were as follows: injection volume, 1 μL; column temperature: 40° C.; detector: 254 nm; stationary phase: Zorbax Eclipse XDB-C18 (4.6×150 mm, 5 μm); flow rate: 1 mL/min; mobile phase: 80-95% acetonitrile in H2O (0.1% formic acid).

[2] = Plasma stability assay (LC-MS/MS); type: in vitro ADME; conditions: human plasma, 37° C., 3 μM
Procedure: Procaine and procainamide were purchased from Sigma Aldrich. HPLC-grade acetonitrile, water, methanol, and formic acid were purchased from Fisher Scientific. Human plasma (Cat. No. […]2N) was obtained from BIOIVT, and PBS (1×Dulbecco's, pH 7.4) from Thermo Fisher Scientific.
Test compounds were dissolved in DMSO to make a stock solution of 10 mM and then diluted to 500 μM in buffer or 70% methanol. Human plasma was thawed at ambient temperature and aliquoted (994.0 μL) to a 1.5 mL Eppendorf tube in duplicates (vials A and B) for each compound. The plasma was incubated at 37° C. for 10 min in an incubator shaker at 150 RPM; the reaction was initiated by addition of the test compound (6.0 μL), followed by vortex mixing. The total reaction volume was 1000 μL, the final organic solvent concentrations were […] (when 70% methanol was used for dilution) and 0.03% DMSO, and the final concentration of the test compound was 3 μM. The spiked plasma samples were incubated at 37° C. for 4 h. The reactions were terminated at time point 0, 15, 30, 60, 120, 180, and 240 min by taking a 100 μL aliquot from the test incubation mixture and immediately quenching it by adding it into ice-cold acetonitrile or methanol (150 μL) containing 2 μM internal standard (ISTD), followed by vortex mixing. The ISTD was d5-7-ethoxy coumarin. The samples were then centrifuged at 15000 RPM for 25 min at 4° C., and the supernatant was transferred to an LC-MS vial for analysis by LC-MS/MS. Each time point was tested in duplicates followed by in-between blank washes to avoid carryover and to equilibrate the column.
Procaine (poor plasma stability) and procainamide (good plasma stability) were used as controls at the same concentration as that of the test compound. These controls were run in parallel to test the assay's competency. Matrix blank was prepared by adding acetonitrile or methanol containing ISTD to plasma samples without any of the test or control compounds. Also, an additional control sample was made to simply monitor compound degradation in PBS buffer.
Below is a summary of samples prepared for a given test compound in a typical plasma stability assay: • Test compound (TC): 994 μL human plasma+6.0 μL TC (Vial A) 994 μL human plasma+6.0 μL TC (Vial B) • Control: 596 μL human plasma+3.6 μL (procaine+procainamide) • Blank matrix: 500 μL PBS buffer+100 μL human plasma • Additional control: 142 μL PBS buffer+0.9 μL TC • Quenching mixture: 150 μL acetonitrile or methanol with ISTD (2 μM) • Final volume: 250 μL (100 μL from the incubation mixture+150 μL quenching mixture; final ISTD conc.: 1.2 μM)
LC-MS/MS analysis was performed using Agilent 1260 Infinity II HPLC, coupled with an Agilent G6460 triple quadrupole mass spectrometer (Agilent Technologies, USA). The data were acquired and processed using the Agilent 6460 Quantitative Analysis data processing software.
Reverse-phase HPLC separation for each compound was achieved on an Agilent InfinityLab Poroshell 120 C18 column (2.1×50 mm, 2.7 μm) with a mobile phase composed of methanol/water with 0.1% formic acid or acetonitrile/water with 0.1% formic acid at a flow rate of 0.5 mL/min. Each method was developed in the presence of the ISTD. The column temperature was maintained at 40° C. The detection was operated using the Agilent Jet-Stream electrospray positive ionization under the multiple reaction monitoring mode. The mass spec conditions were as follows: dwell time 100 ms; gas flow 10 L/min; nebulizer pressure 45 psi; delta EMV 200 V.
Plots of time (x-axis) vs. the natural logarithm of percent parent remaining (y-axis) were subsequently constructed to determine the slope. Finally, the plasma stability was evaluated using the following equation: […]

[3] = Nephelometry (aqueous solubility); type: physicochemical; conditions: DPBS with 1% DMSO, aqueous buffer, kinetic from dmso stock, DPBS pH 7.0-7.3, 1% DMSO, 25° C.
Description: Well A1 of the plate contained 100% DMSO.

Row | SMILES | half-life [1] | Plasma % rmn at 2 h [2] | solubility at 90 min [3] | Plasma t1/2 [2] | PBS t1/2 [1]
1 | C/C(=N\OC(=O)N(CCNC(C)C)C(C)C)[C@H]1CC[C@H]2[C@@H]3CCC4=CC(=O)CC[C@]4(C)[C@H]3CC[C@]12C.Cl [54b, (E)-2-((8S,9S,10R,13S,14S,17S)-10,13-dimethyl-3-oxo-2,3,6,7,8,9,10,11,12,13,14,15,16,17-tetradecahydro-1H-cyclopenta[a]phenanthren-17-yl)-6-isopropyl-10-methyl-4-oxa-3,6,9-triazaundec-2-en-5-one hydrochloride] | > 24 h | 84% | > 500 µM |  | 
2 | C/C(=N\OC(=O)N(C)CCNCCO)[C@H]1CC[C@H]2[C@@H]3CCC4=CC(=O)CC[C@]4(C)[C@H]3CC[C@]12C [32d, 2-((((((E)-1-((8S,9S,10R,13S,14S,17S)-10,13-dimethyl-3-oxo-2,3,6,7,8,9,10,11,12,13,14,15,16,17-tetradecahydro-1H-cyclopenta[a]phenanthren-17-yl)ethylidene)amino)oxy)carbonyl)(methyl)amino)-N-(2-hydroxyethyl)ethan-1-aminium chloride] | 30.4 ± 5 h |  | > 500 µM | 2.8 h | 
3 | CNCCN(CC(C)C)C(=O)O/N=C(\C)[C@H]1CC[C@H]2[C@@H]3CCC4=CC(=O)CC[C@]4(C)[C@H]3CC[C@]12C.O=C(O)C(F)(F)F [53e, (E)-9-((8S,9S,10R,13S,14S,17S)-10,13-dimethyl-3-oxo-2,3,6,7,8,9,10,11,12,13,14,15,16,17-tetradecahydro-1H-cyclopenta[a]phenanthren-17-yl)-5-isobutyl-7-oxa-2,5,8-triazadec-8-en-6-one 2,2,2-trifluoroacetate] | > 24 h | 83% | > 750 µM |  | 
4 | CNCCN(C(=O)O/N=C(\C)[C@H]1CC[C@H]2[C@@H]3CCC4=CC(=O)CC[C@]4(C)[C@H]3CC[C@]12C)C1CCCC1.O=C(O)C(F)(F)F [53d, (E)-5-cyclopentyl-9-((8S,9S,10R,13S,14S,17S)-10,13-dimethyl-3-oxo-2,3,6,7,8,9,10,11,12,13,14,15,16,17-tetradecahydro-1H-cyclopenta[a]phenanthren-17-yl)-7-oxa-2,5,8-triazadec-8-en-6-one 2,2,2-trifluoroacetate] |  | 65% | > 750 µM |  | 10.70 ± 0.15 h
5 | C/C(=N\OC(=O)N(CCO)CCNCCO)[C@H]1CC[C@H]2[C@@H]3CCC4=CC(=O)CC[C@]4(C)[C@H]3CC[C@]12C.Cl [54d, (E)-2-((8S,9S,10R,13S,14S,17S)-10,13-dimethyl-3-oxo-2,3,6,7,8,9,10,11,12,13,14,15,16,17-tetradecahydro-1H-cyclopenta[a]phenanthren-17-yl)-11-hydroxy-6-(2-hydroxyethyl)-4-oxa-3,6,9-triazaundec-2-en-5-one hydrochloride] |  | 32% | > 750 µM |  | 28.79 ± 3.16 h
6 | CNCCN(C(=O)O/N=C(\C)[C@H]1CC[C@H]2[C@@H]3CCC4=CC(=O)CC[C@]4(C)[C@H]3CC[C@]12C)C1CC1.O=C(O)C(F)(F)F [53b, (E)-5-cyclopropyl-9-((8S,9S,10R,13S,14S,17S)-10,13-dimethyl-3-oxo-2,3,6,7,8,9,10,11,12,13,14,15,16,17-tetradecahydro-1H-cyclopenta[a]phenanthren-17-yl)-7-oxa-2,5,8-triazadec-8-en-6-one 2,2,2-trifluoroacetate] |  | 45% | > 750 µM |  | 28.16 ± 0.04 h
7 | CNCCN(C(=O)O/N=C(\C)[C@H]1CC[C@H]2[C@@H]3CCC4=CC(=O)CC[C@]4(C)[C@H]3CC[C@]12C)C(C)C.O=C(O)C(F)(F)F [53a, (E)-9-((8S,9S,10R,13S,14S,17S)-10,13-dimethyl-3-oxo-2,3,6,7,8,9,10,11,12,13,14,15,16,17-tetradecahydro-1H-cyclopenta[a]phenanthren-17-yl)-5-isopropyl-7-oxa-2,5,8-triazadec-8-en-6-one 2,2,2-trifluoroacetate] |  | 41% | > 750 µM |  | 19.72 ± 0.38 h
